Results as given in the supplement of paper PMC4862054.

Experiments:
Conditions in all cases: incubation time: 72 h
CAL-85-1 [1] = experiment: normalised response (% of control), CellTox Green; higher = less cell death (100 = DMSO, 0 = benzethonium chloride kill control)
How it was run: (§1)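 Each entry is the normalised signal at a single concentration within a series. The series comprised 5 concentrations in 10-fold steps over a compound-specific 10,000-fold range, placed in 384-well plates into which breast cancer cell lines were seeded as 20 µl suspension and incubated 72 h. CellTox Green (485/520 nm) fluorescence and then CellTiter-Glo luminescence were read, with signals normalised per plate to 0.1 % DMSO (100) and a positive kill control (0).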

HCC1937 [2] = experiment: as above
How it was run: as §1

MCF-10A [3] = experiment: as above
How it was run: as §1

MDA-MB-436 [4] = experiment: as above
How it was run: as §1

HCC1599 [5] = experiment: as above
How it was run: as §1

MDA-MB-453 [6] = experiment: as above
How it was run: as §1

HDQ-P1 [7] = experiment: as above
How it was run: as §1

DU-4475 [8] = experiment: as above
How it was run: as §1

CAL-148 [9] = experiment: as above
How it was run: as §1

MDA-MB-468 [10] = experiment: as above
How it was run: as §1

MFM-223 [11] = experiment: as above
How it was run: as §1

BT-474 [12] = experiment: as above
How it was run: as §1

CAL-120 [13] = experiment: as above
How it was run: as §1

CAL-51 [14] = experiment: as above
How it was run: as §1

Hs578T [15] = experiment: as above
How it was run: as §1

MDA-MB-231 [16] = experiment: as above
How it was run: as §1

BT-549 [17] = experiment: as above
How it was run: as §1

SK-BR-3 = experiment: normalised response (% of control), CellTiter-Glo; higher = more viable cells (100 = DMSO, 0 = benzethonium chloride kill control)
Experimental: (§2)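 DSRT, 72 h incubation, CellTox Green / CellTiter-Glo readout. Signal is normalised to DMSO and benzethonium chloride controls. Value is the normalised response at the highest dose.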

CAL-85-1 [18] = experiment: as above
Experimental: as §2

HCC1937 [19] = experiment: as above
Experimental: as §2

MCF-10A [20] = experiment: as above
Experimental: as §2

MDA-MB-436 [21] = experiment: as above
Experimental: as §2

HCC1599 [22] = experiment: as above
Experimental: as §2

MDA-MB-453 [23] = experiment: as above
Experimental: as §2

HDQ-P1 [24] = experiment: as above
Experimental: as §2

HCC1143 [25] = experiment: as above
Experimental: as §2

DU-4475 [26] = experiment: as above
Experimental: as §2

CAL-148 [27] = experiment: as above
Experimental: as §2

MDA-MB-468 [28] = experiment: as above
Experimental: as §2

MFM-223 [29] = experiment: as above
Experimental: as §2

BT-474 [30] = experiment: as above
Experimental: as §2

CAL-120 [31] = experiment: as above
Experimental: as §2

CAL-51 [32] = experiment: as above
Experimental: as §2

Hs578T [33] = experiment: as above
Experimental: as §2

MDA-MB-231 [34] = experiment: as above
Experimental: as §2

BT-549 [35] = experiment: as above
Experimental: as §2

HCC1143 [36] = experiment: normalised response (% of control), CellTox Green; higher = less cell death (100 = DMSO, 0 = benzethonium chloride kill control)
How it was run: as §1

Compound | normalised response (CAL-85-1 [1]) | normalised response (HCC1937 [2]) | normalised response (MCF-10A [3]) | normalised response (MDA-MB-436 [4]) | normalised response (HCC1599 [5]) | normalised response (MDA-MB-453 [6]) | normalised response (HDQ-P1 [7]) | normalised response (DU-4475 [8]) | normalised response (CAL-148 [9]) | normalised response (MDA-MB-468 [10]) | normalised response (MFM-223 [11]) | normalised response (BT-474 [12]) | normalised response (CAL-120 [13]) | normalised response (CAL-51 [14]) | normalised response (Hs578T [15]) | normalised response (MDA-MB-231 [16]) | normalised response (BT-549 [17]) | normalised response (SK-BR-3) | normalised response (CAL-85-1 [18]) | normalised response (HCC1937 [19]) | normalised response (MCF-10A [20]) | normalised response (MDA-MB-436 [21]) | normalised response (HCC1599 [22]) | normalised response (MDA-MB-453 [23]) | normalised response (HDQ-P1 [24]) | normalised response (HCC1143 [25]) | normalised response (DU-4475 [26]) | normalised response (CAL-148 [27]) | normalised response (MDA-MB-468 [28]) | normalised response (MFM-223 [29]) | normalised response (BT-474 [30]) | normalised response (CAL-120 [31]) | normalised response (CAL-51 [32]) | normalised response (Hs578T [33]) | normalised response (MDA-MB-231 [34]) | normalised response (BT-549 [35]) | normalised response (HCC1143 [36])
CN(Cc1cnc2nc(N)nc(N)c2n1)c1ccc(C(=O)N[C@@H](CCC(=O)O)C(=O)O)cc1 [Methotrexate] (50000 nM) | 64.1% | 106% | 103% | 42.9% | 101% | 65% | 112% | 99% | 105% | 77.6% | 103% | 93.8% | 102% | 114% | -70.6% | 92.3% | 103% | 72.5% | 49.6% | 31.5% | 105% | 77.1% | 52.4% | 96% | 53.7% | 84.4% | 92.3% | 107% | 100% | 101% | 23.6% | 21.7% | 68.2% | 19.5% | 29.1% | 92.2% | –
CC[C@H](CO)Nc1nc(NCc2ccccc2)c2ncn(C(C)C)c2n1 [Seliciclib] (10000 nM) | 62.7% | 105% | 108% | 91.4% | 110% | 108% | 106% | 105% | 95.6% | 154% | 68.6% | 100% | 97.2% | 99.4% | 84.9% | 108% | 91.5% | 86.2% | 83.9% | 92.4% | 95.9% | 79.9% | 95.9% | 132% | 84.4% | 96.3% | 97.7% | 117% | 87.1% | 89% | 82.1% | 92% | 78.7% | 96.4% | 81.1% | 80.1% | 84.5%
C=CCN(/C=C1/C(=O)O[C@H](COC)[C@@]2(C)C1=C(O)C(=O)C1=C2[C@H](OC(C)=O)C[C@]2(C)C(=O)CC[C@@H]12)CC=C [Sonolisib] (10000 nM) | 61.7% | 81.7% | 108% | 98.2% | 113% | 101% | 108% | 107% | – | – | 103% | 99.8% | 97.4% | 90.6% | 111% | 106% | 104% | 93.9% | 103% | 90.4% | 88.4% | 101% | 102% | 84.8% | 72.1% | 91.8% | 96.5% | 124% | 86% | 106% | 87.1% | 102% | 82.1% | 95.7% | 87.3% | 82.2% | 117%
O=[N+]([O-])c1ccc2c(c1)S(=O)(=O)C=C2 [Stattic] (50000 nM) | -51.7% | -18.2% | -24.7% | -15.2% | 65% | 17.2% | 27.2% | 82.3% | 25.6% | -81.1% | 30.1% | 8.89% | 27.8% | 34.1% | -12.9% | -17.4% | -34.2% | 0.32% | -0.24% | 0.16% | 0.13% | -0.02% | 0.17% | 0.25% | 0.11% | 0.27% | 0.04% | 0.45% | 0.18% | 0.11% | 0.34% | -0.12% | 0.17% | 0.3% | -0.2% | -0.12% | -42.8%
